Reference: patent publication US9226950B2, “Method and composition for treating diabetes mellitus” (National Dong Hwa University, priority 2013, dated 2016)

Biological target: T1, Insr (Rattus norvegicus, UniProt P15127)
T1 construct: L6 cells were fully differentiated with α-MEM supplemented with 2% FBS for 5 days to myotubes; endogenous in cells; host or cells: L6 myoblasts differentiated to myotubes
Test: Phosphorylation of insulin receptors (Tyr1158/Tyr1162/Tyr1163) in L6 cells, Western blot
Type: cell-based
Conditions: FIG. 1(a)
Description: […] muscle myoblast cells (L6) was a generous gift from Professor Hitoshi Ashida's Lab. (Kobe University, Kobe, Japan). The cells were grown and maintained in α-minimal essential medium (α-MEM, 12000022, GIBCO, CA, USA) containing 10% fetal bovine serum (FBS, GIBCO) and 1% penicillin streptomycin (GIBCO) in a cell culture incubator with 5% CO2 at 37° C. Prior to the following experiments, the cells were seeded and cultured at a density of 8×10^3 cells per well in 96-well plates or 2.5×10^5 cells per well in 6-well plates. After the myoblasts achieved 80% confluence, the cells were incubated for 5 days in the α-MEM supplemented with 2% FBS to induce differentiation to myotubes.
L6 cells were fully differentiated with α-MEM supplemented with 2% FBS for 5 days to myotubes. The cells were washed twice with Phosphate Buffered Saline (PBS) containing 0.1% BSA and subsequently incubated α-MEM containing 0.25% BSA with or without 100 nM of S961, and treated with or without 100 μM of Tetracosanol for 90 min. Then, the cells were treated with or without 10 μM of insulin for 5 min. […] The levels of the proteins including phospho-Insulin receptors (Tyr1158/Tyr1162/Tyr1163) and Insulin receptor (Cell Signaling, Boston, Mass., USA) were detected and evaluated by Western blot with primary antibody.
The cells after treatments were collected and washed twice in cold KRH buffer, and then lysed in ice-cold RIPA buffer incubation at 4° C. for 60 min. After centrifugation at 12,000×g for 30 min at 4° C., the supernatant was kept and quantified by Bradford protein assay (Bio-Rad, Hercules, Calif., USA). […] The signals were monitored using Western Lightning™ Plus-ECL (Perkin Elmer Life Sciences) and the PVDF membrane was exposed to Luminescent image analyzer (LAS)-3000 (Fujifilm, Minato, Tokyo, Japan). Acquired data were analyzed and compared the difference among treatments. […]

T1 sequence (P15127 27-759 limits assumed): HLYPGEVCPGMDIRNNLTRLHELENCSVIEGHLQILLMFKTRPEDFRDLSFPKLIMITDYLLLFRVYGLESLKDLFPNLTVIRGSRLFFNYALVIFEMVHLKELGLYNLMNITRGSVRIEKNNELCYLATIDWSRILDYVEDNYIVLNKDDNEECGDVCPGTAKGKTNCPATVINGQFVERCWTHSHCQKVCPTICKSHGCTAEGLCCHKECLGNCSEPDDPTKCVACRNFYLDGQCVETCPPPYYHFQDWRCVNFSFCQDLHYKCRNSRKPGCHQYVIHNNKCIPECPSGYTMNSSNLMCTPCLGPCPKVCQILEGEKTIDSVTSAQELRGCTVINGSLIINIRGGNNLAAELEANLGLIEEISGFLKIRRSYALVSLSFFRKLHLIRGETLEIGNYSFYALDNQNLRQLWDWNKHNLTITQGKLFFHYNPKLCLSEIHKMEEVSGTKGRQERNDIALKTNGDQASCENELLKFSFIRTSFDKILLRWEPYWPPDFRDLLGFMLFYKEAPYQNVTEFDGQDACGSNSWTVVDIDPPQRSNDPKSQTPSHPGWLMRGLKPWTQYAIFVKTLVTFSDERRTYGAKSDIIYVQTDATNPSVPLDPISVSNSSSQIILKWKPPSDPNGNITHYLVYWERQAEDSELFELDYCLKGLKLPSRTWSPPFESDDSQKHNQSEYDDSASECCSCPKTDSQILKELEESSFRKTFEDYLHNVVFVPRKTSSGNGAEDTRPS
T1 sequence (P15127 764-1383 limits assumed): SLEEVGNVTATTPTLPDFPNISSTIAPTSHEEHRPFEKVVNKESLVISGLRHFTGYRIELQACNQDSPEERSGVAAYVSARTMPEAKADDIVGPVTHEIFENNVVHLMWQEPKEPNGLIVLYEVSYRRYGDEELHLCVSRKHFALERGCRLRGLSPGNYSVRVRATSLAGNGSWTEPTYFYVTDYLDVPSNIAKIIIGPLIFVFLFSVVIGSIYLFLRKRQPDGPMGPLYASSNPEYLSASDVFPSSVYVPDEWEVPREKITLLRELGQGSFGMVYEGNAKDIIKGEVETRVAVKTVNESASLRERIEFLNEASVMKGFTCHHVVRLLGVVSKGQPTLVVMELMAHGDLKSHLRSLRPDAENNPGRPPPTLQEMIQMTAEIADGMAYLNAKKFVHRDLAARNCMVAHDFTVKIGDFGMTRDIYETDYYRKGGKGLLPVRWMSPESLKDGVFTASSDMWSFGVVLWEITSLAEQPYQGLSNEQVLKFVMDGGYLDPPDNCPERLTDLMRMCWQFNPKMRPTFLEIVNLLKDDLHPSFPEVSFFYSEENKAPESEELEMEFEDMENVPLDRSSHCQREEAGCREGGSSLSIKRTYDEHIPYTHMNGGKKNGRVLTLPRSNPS

phosphorylation of phospho-Insr on Tyr1158, 1162, and 1163 (insulin plus tetracosanol (Ins+Tet): 100 μM tetracosanol 90 min, then 10 μM insulin 5 min): tended to be enhanced
phosphorylation of phospho-Insr on Tyr1158, 1162, and 1163 (insulin with S961 plus tetracosanol (Ins+S961+Tet): 100 nM S961, 100 μM tetracosanol, 10 μM insulin): tended to be enhanced
SMILES: CCCCCCCCCCCCCCCCCCCCCCCCO [tetracosanol]
